6 compounds from ChEMBL document CHEMBL1131984, “Synthesis and antitumour activity of novel diterpenequinone salvicine and the analogs” (Bioorg Med Chem Lett, 1999) can be followed below.

As usually defined, the pIC50 is the negative decadic logarithm of the IC50, by convention in mol/L. In general, Inhibition refers to the drop in the measured response relative to a control, in per cent. The inhibition in vivo is the change of the read-out against control, counted positive when it falls. Low readings indicate little suppression, high ones strong suppression.

The subject of assay [1] is HL-60. Kind of assay: In vitro cytotoxic activity against HL-60 human leukemia cell line by MTT assay (microculture terazolium colorimetric). The assay is classed as functional, cell-based. (In general: Formazan colour is commonly taken as a measure of viable cells.)
Assay [2] has as its system P388. Kind of assay: In vitro cytotoxic activity against P388 mouse leukemia cell line by MTT assay (microculture terazolium colorimetric). The class given is functional, cell-based.
Assay [3] concerns SPC-A4. Kind of assay: In vitro cytotoxic activity against SPC-A4 lung cancer solid tumor cell line by MTT assay (microculture terazolium colorimetric). The assay is classed as functional, cell-based. The conditions noted are these: Homo sapiens.
Assay [4] deals with SGC-7901. Briefly: In vitro cytotoxic activity against SGC-7901 stomach cancer solid tumor cell line by MTT assay (microculture terazolium colorimetric). To be noted: Homo sapiens. The assay is classed as functional, cell-based.
The subject of assay [5] is Mus musculus. Kind of assay: In vivo inhibitory activity against murine S-180 sarcoma at a dose of 3.0 mg/kg (day 7). The assay is classed as functional.
The subject of assay [6] is Mus musculus. Kind of assay: In vivo inhibitory activity against murine lewis lung cancer at a dose of 5.0 mg/kg i.p. (day10). The assay is classed as functional. The conditions noted are these: route intraperitoneal.
Assay [7] relates to Mus musculus. Briefly: Ratio of the tumor weight of mice at the initial stage and the final stage of the experiment was reported at a dose of 5.0 mg/kg i.p. (day10). The assay is classed as functional. To be noted: route intraperitoneal.
The test system of assay [8] is Mus musculus. Kind of assay: (§1) Ratio of the tumor weight of mice at the initial stage and the final stage of the experiment was reported at a dose of 3.0 mg/kg (day 7). The assay is classed as functional.
Assay [9] concerns Mus musculus. The description is as §1. The class given is functional. The source holds these as a separate data set.

pIC50: −log10 of the molar value. Several values for one entry are separate records, joined by “and”; a condition that tells them apart may be missing. Equal entries are not always repeated.

`CC(=O)OC(CCc1c(C)ccc2c1C(=O)C(=O)C(C(C)C)=C2)C(C)(C)O` (stereo not given): the figures for the pIC50 in [1], in assay [2] and in assay [3] were 5.30, 5.47 and 5.58, respectively.
For `C=C(C)[C@H](CCc1c(C)ccc2c1C(=O)C(=O)C(C(C)C)=C2)OO`, the pIC50 in assay [1] is 5.43; in assay [2], 5.43; in [4], 5.65; in [3], 5.54.
Take `COc1cc([C@@H]2c3cc4c(cc3[C@@H](O[C@@H]3O[C@@H]5CO[C@@H](C)O[C@H]5[C@H](O)[C@H]3O)[C@H]3COC(=O)[C@H]23)OCO4)cc(OC)c1O` [ETOPOSIDE]: the Inhibition in assay [5] is 40% and 39.4% and 61.3%; in assay [6] (5 mg/kg) it was 48.5%. In addition, at 5 mg/kg the inhibition in vivo in [6] (Mus musculus, Lung, ip, 240 h) was 50.3%. The Tumor weight in assay [7] was 0.73 g and 1.03 g; in [8] it was 0.99 g; in assay [9], 1.09 g and 1.06 g.
Turning to `Cc1ccc2c(c1CCC(=O)O)C(=O)C(=O)C(C(C)C)=C2`, the pIC50 was 5.55 in assay [1], 5.84 in assay [2], 4.17 in assay [4] and 5.58 in [3].
The corresponding values for `Cc1ccc2c(c1CCC1OC1(C)C)C(=O)C(=O)C(C(C)C)=C2` (stereo not given) are 5.35, 5.47, 4.15 and 5.73.
The like results for `Cc1ccc2c(c1CCC(=O)C(C)C)C(=O)C(=O)C(C(C)C)=C2` were, in that order, 6.57, 6.08, 5.70 and 5.47.
